Test results from patent US5344933A, “Pyrrole ring-or condensed pyrrole ring-containing azomethine dye” (Fuji Photo Film Co., Ltd., priority 1991, dated 1994).
Values belong to the compound of their own block, whether it stands above or below them.

Columns and labels:
Type in all cases: physicochemical
[1] = Heat fastness of dye images, 60° C. dry, 7 days, status A reflection density (Example 5); conditions: Table 4, status A reflection density 1.0
Protocol: The heat transfer image-receiving materials on which recording had been made were stored at a temperature of 60° C. under dry conditions for 7 days to examine the fastness of the dyes to heat. […] For the evaluation of stability, percentage of the measurements to the initial value (1.0) were determined.
(§1) Using the same image-receiving material as prepared in Example 2, printing was made on these heat transfer dye providing materials.

[2] = Light fastness of dye images, 17,000 lux fluorescent lamp, 7 days
Protocol: (§2) The heat transfer image-receiving materials on which recording had been made were then irradiated with light from a 17,000 lux fluorescent lamp for 7 days to examine the stability of the dyes. The heat transfer image-receiving materials were also stored at a temperature of 60° C. under dry conditions for 7 days to examine the fastness of the dyes to heat. […] For the evaluation of stability, percentage of the measurements to the initial value (1.0) were determined. The measurement was effected at λmax.
(§3) Heat transfer dye providing materials (3-1), (3-2), and (3-3) were prepared in the same manner as in Example 2 except that the polyvinyl butyral resin and dye to be incorporated in the heat transfer dye providing layer coating composition of Example 2 were replaced by the resins and dyes set forth in Table 3.
as §1
as §3, with “(6-1), (6-2),” for “(3-1), (3-2),”, “(6-3)” for “(3-3)”, “6.” for “3.”

[3] = Absorption characteristics of dyes in ethyl acetate; conditions: for absorption maxima wavelength (λmax): Example 1
Source text: The σp value of substituents in dyes of the present invention, the absorption maxima wavelength of these dyes in ethyl acetate and their half value widths are tabulated below.
The absorption characteristics of Dyes 1, 2, 8, 12, 23, 101, 102, 104, 105, 106, 128, 129, 130, and 131 of the present invention in ethyl acetate are as shown in FIGS. 1 to 14. In these figures, the abbreviation "ABS" in the ordinate means the absorbance. The absorption maxima wavelength (λmax) in ethyl acetate and other physical properties of the dyes of the present invention are as follows: […]

[4] = Heat fastness of dye images, 60° C. dry, 7 days (Example 2); conditions: Table 1, initial density 1.0, at λmax
Protocol: as §2

[5] = Table 1, 17,000 lux, 7 days, initial density 1.0, at λmax, polyvinyl butyral

Heat fastness (% remaining) [1]: 90%
Compound: CCN(CCC#N)c1ccc(N=C2N=C(NC(=O)C(C)(C)C)C(C#N)=C2C#N)cc1 [Dye 119]

Light fastness (% remaining) ([2]; Table 6, resin polysulfone): 92%
Heat fastness (% remaining) [1]: 90%
Compound: CCN(CCOc1ccc(OC)cc1)c1ccc(N=C2N=C(c3ccccc3)C(C#N)=C2NC(=O)C(C)(C)C)cc1 [Dye 115]

Half value width [3]: 65 nm
absorption / hue (in words) [3]: long absorption maxima wavelength
half value width (in words) [3]: sufficiently small
absorption maxima wavelength (λmax) [3]: 660 nm
Compound: CCCCCCCCCCCCC(SC1=NC(=Nc2ccc(N(CC)CCNS(C)(=O)=O)cc2C)C(C#N)=C1C(=O)OCC)C(=O)OCC (stereo not drawn) [Dye 101]

Heat fastness (% remaining) [1]: 94%
Compound: CCN(CC)c1ccc(N=C2N=C(c3ccccc3)C(C#N)=C2C(C)(C)C)c(NC(=O)N2CCOCC2)c1 [Dye 117]

Light fastness (% remaining) [2, 5]: 91%
Light fastness (% remaining) ([2]; Table 3, resin cellulose acetobutyrate): 92%
Heat fastness (% remaining) [4]: 85%
Compound: CCOC(=O)c1c(C)n2c(nc1=O)C(C#N)=C(c1ccccc1)C2=Nc1ccc(N(CC)CC)cc1NC(=O)OC [Dye 4]

Light fastness (% remaining) ([2]; Table 6, resin cellulose acetobutyrate): 93%
Heat fastness (% remaining) [1]: 91%
Compound: CCN(CC)c1ccc(N=C2N=C(c3ccccc3)C(C#N)=C2c2ccccc2)c(C)c1 [Dye 114]

Light fastness (% remaining) [2, 5]: 93%
Heat fastness (% remaining) [4]: 98%
Compound: CCOC(=O)c1cn2c(nc1=O)C(C#N)=C(C#N)C2=Nc1ccc(N(CC)CC)cc1NC(=O)N(C)C [Dye 16]

Light fastness (% remaining) [2, 5]: 91%
Heat fastness (% remaining) [4]: 95%
Compound: CCN(CC)c1ccc(N=C2C(C#N)=C(c3ccccc3)c3nc(=O)ccn32)c(NC(C)=O)c1 [Dye 17]

Light fastness (% remaining) [2, 5]: 90%
Heat fastness (% remaining) [4]: 86%
Compound: CCOC(=O)C1=C(C#N)C(=Nc2ccc(N(CC)CC)cc2)n2c1nc1ccccc1c2=O [Dye 29]

absorption maxima wavelength (λmax) [3]: 685 nm
Light fastness (% remaining) [2, 5]: 90%
Light fastness (% remaining) ([2]; Table 3, resin ethyl cellulose): 91%
Heat fastness (% remaining) [4]: 85%
Compound: CCOC(=O)c1c(C)n2c(nc1=O)C(C#N)=C(c1ccccc1)C2=Nc1ccc(N(CC)CC)cc1 [Dye 2]

Half value width [3]: 120 nm
half value width (in words) [3]: large half value width
absorption maxima wavelength (λmax) [3]: 639 nm
Compound: CCCCCCCCCCCCCCCCS(=O)(=O)Nc1ccc(Cl)c(NC(=O)NC2=NC(=Nc3ccc(N(CC)CCNS(C)(=O)=O)cc3)C(C(N)=O)=C2C(N)=O)c1 [Dye 130]

Half value width [3]: 69 nm
absorption / hue (in words) [3]: long absorption maxima wavelength
half value width (in words) [3]: sufficiently small
absorption maxima wavelength (λmax) [3]: 655 nm
Compound: CCCCCCCCCCCCSC1=NC(=Nc2ccc(N(CC)CCNS(C)(=O)=O)cc2C)C(C#N)=C1C(=O)OCC [Dye 102]

Heat fastness (% remaining) [1]: 91%
Compound: CCN(CC)c1ccc(N=C2N=C(c3ccccc3Cl)C(C(C)(C)C)=C2C#N)c(NC(=O)C(C)(C)C)c1 [Dye 118]

absorption maxima wavelength (λmax) [3]: 698 nm
Light fastness (% remaining) [2, 5]: 94%
Heat fastness (% remaining) [4]: 98%
Compound: CCOC(=O)c1cn2c(nc1=O)C(C#N)=C(c1ccccc1)C2=Nc1ccc(N(CC)CC)cc1NC(=O)OC [Dye 12]
absorption / hue (in words) [3]: sufficient and sharp absorption in the vicinity of 700 nm and little or no absorption in the wavelength region of longer than 800 nm

Half value width [3]: 82 nm
half value width (in words) [3]: large half value width
absorption maxima wavelength (λmax) [3]: 582 nm
Compound: CCOC(=O)C1=C(c2ccccc2)C(=Nc2ccc(N(CC)CCNS(C)(=O)=O)cc2C)N=C1Cl [Dye 105]
absorption / hue (in words) [3]: in a slightly short wavelength range but exhibit a cyan hue

Half value width [3]: 98 nm
half value width (in words) [3]: large half value width
Absorption maxima ([3]; first table): 629 nm
Compound: CCC(Oc1ccc(C(C)(C)CC)cc1C(C)(C)CC)C(=O)NC1=NC(=Nc2ccc(N(CC)CCNS(C)(=O)=O)cc2C)C(C(N)=O)=C1C(N)=O (stereo not drawn) [Dye 131]

absorption maxima wavelength (λmax) [3]: 658 nm
Compound: CCCCCCCCCCCCCCCCCCOc1ccc(-c2cc(=O)n3c(n2)C(C#N)=C(c2ccccc2)C3=Nc2ccc(N(CC)CCNS(C)(=O)=O)cc2C)cc1 [Dye 23]

absorption maxima wavelength (λmax) [3]: 694 nm
Light fastness (% remaining) [2, 5]: 91%
Light fastness (% remaining) ([2]; Table 3, resin polysulfone): 91%
Heat fastness (% remaining) [4]: 99%
Compound: CCOC(=O)c1cn2c(nc1=O)C(C#N)=C(c1ccccc1)C2=Nc1ccc(N(CC)CC)cc1 [Dye 8]

Heat fastness (% remaining) [1]: 98%
Compound: CCN(CCOc1ccc(C(=O)c2ccccc2)c(O)c1)c1ccc(N=C2N=C(c3ccccc3)C(C#N)=C2c2cccs2)cc1 [Dye 120]

Half value width [3]: 78 nm
half value width (in words) [3]: large half value width
absorption maxima wavelength (λmax) [3]: 601 nm
Compound: CCC(Oc1ccc(C(C)(C)CC)cc1C(C)(C)CC)C(=O)NC1=C(C#N)C(c2ccccc2)=NC1=Nc1ccc(N(CC)CCNS(C)(=O)=O)cc1C (stereo not drawn) [Dye 104]
absorption / hue (in words) [3]: in a slightly short wavelength range but exhibit a cyan hue

Half value width [3]: 64 nm
absorption / hue (in words) [3]: long absorption maxima wavelength
half value width (in words) [3]: sufficiently small
absorption maxima wavelength (λmax) [3]: 658 nm
Compound: CCN(CCNS(C)(=O)=O)c1ccc(N=C2N=C(NC(C)=O)C(C#N)=C2C#N)c(C)c1 [Dye 128]

Half value width [3]: 79 nm
absorption / hue (in words) [3]: long absorption maxima wavelength
half value width (in words) [3]: sufficiently small
absorption maxima wavelength (λmax) [3]: 677 nm
Compound: CCN(CCNS(C)(=O)=O)c1ccc(N=C2N=C(NC(=O)Nc3ccccc3)C(C#N)=C2C#N)c(C)c1 [Dye 129]

Heat fastness (% remaining) [1]: 83%
Compound: CCN(CC)c1ccc(N=C2C=C(NC(=O)c3ccco3)C(=O)C(Cl)=C2C)cc1 [Dye b, reference compound]

Light fastness (% remaining) [2, 5]: 92%
Heat fastness (% remaining) [4]: 86%
Compound: CCOC(=O)c1c(C)n2c(nc1=O)C(C#N)=C(c1ccccc1)C2=Nc1ccc(N(CC)CCOc2ccc(OC)cc2)cc1 [Dye 3]

Light fastness (% remaining) [2, 5]: 87%
Heat fastness (% remaining) [4]: 88%
Compound: CCC1=C(Cl)C(=O)C(NC(=O)c2ccco2)=CC1=Nc1ccc(N(CC)CC)cc1 [Dye a, reference compound]

Heat fastness (% remaining) [1]: 89%
Compound: CCN(CC)c1ccc(N=C2N=C(c3ccccc3NC(=O)C(C)(C)C)C(C#N)=C2c2ccccc2)cc1 [Dye 116]

Light fastness (% remaining) ([2]; Table 6, resin ethyl cellulose): 91%
Heat fastness (% remaining) [1]: 90%
Compound: CCN(CC)c1ccc(N=C2N=C(NC(=O)C(C)(C)C)C(C#N)=C2C#N)cc1 [Dye 113]

Half value width [3]: 79 nm
absorption maxima wavelength (λmax) [3]: 641 nm
Compound: CCN(CCNS(C)(=O)=O)c1ccc(N=C2N=C(N)C(C#N)=C2C#N)c(C)c1 [Dye 106]

absorption maxima wavelength (λmax) [3]: 697 nm
Compound: CCOC(=O)c1c(C)n2c(nc1=O)C(C#N)=C(c1ccccc1)C2=Nc1ccc(N(CC)CCNS(C)(=O)=O)cc1C [Dye 1]

Light fastness (% remaining) [2, 5]: 91%
Heat fastness (% remaining) [4]: 85%
Compound: CCN(CC)c1ccc(N=C2C(c3ccccc3)=C(C#N)c3nc(=O)c4ccccc4n32)c(NC(C)=O)c1 [Dye 22]

Light fastness (% remaining) [2, 5]: 93%
Heat fastness (% remaining) [4]: 100%
Compound: CCOC(=O)c1cn2c(nc1=O)C(C#N)=C(c1ccccc1)C2=Nc1ccc(N(CC)CCOc2ccc(OC)cc2)cc1 [Dye 10]
